2 compounds from patent publication US20110274763A1, “Slow releasing microcapsules and microspheres containing an active substance” (priority 2009, published 2011) can be followed below.

Read-outs that look alike come from different tables or passages of the source.

Series [1] in a line: IPBC release from painted surfaces immersed in water (14C, liquid scintillation). The series is classed as physicochemical. The settings on record: water-based paint; 0.1% IPBC in wet paint; microspheres with 10% and 25% loading; plates in 250 ml water. As to the method: Three different 10 g paint samples were prepared. […] A specific fraction of the IPBC was ^14C-labelled material. Wet paint contained in total 0.1% IPBC. Stirring the paint assured homogeneous dispersion of the added substance. […] The containers were placed on a mechanical shaker. […] The release of free IPBC is about three times faster than that from microspheres.

For series [2], the system named is barnacles and other fouling organisms. Conditions: 0.1% by weight medetomidine or equivalent in marine paint; six and ten months of submersion in the sea, Swedish west coast.
Experimental: PMMA test panels 1 dm^2 was painted by brush with three different biocide free commercially available marine paints. 3 ml of paint were used for each layer and there were two layers applied on each panel. These panels were used as references. To the same paints in different cans were added 0.1% by weight of medetomidine or an equivalent amount of medetomidine encapsulated in microspheres. The paint mixtures were applied to the same kind of test panels as the reference paints. All panels were made in triplicates and mounted randomly on a frame for submersion into the sea on the Swedish west coast (Tjärnö Marine Biological Laboratory). After six months and ten months (June 2009 to December 2009 and in April 2010) of submersion they were inspected.
For series [3] the following is noted: plates in 2000 ml water, 0.4% medetomidine in wet paint. How it is done:
Four different 30 g paint samples were prepared. Two of the samples were based on biocide-free and water-based standard white exterior wall paint, while the two other samples were based on biocide-free and organic solvent-based standard white exterior wall paint. Medetomidine was added to each sample, either in free form or the form of microspheres. ^14C-labelled material was 2.3% of all medetomidine. Wet paint contained in total 0.4% medetomidine. Stirring the paint with an electrical mixer assured homogeneous dispersion of the added substance. For the release studies, approximately 1 g (dry state) of the paint systems was applied on poly(propylene) plates using a paint applicator. After drying and weighing, each plate was vertically positioned in a closed container containing 2000 ml water that covered the plate. The containers were placed on a mechanical shaker. At various times 1000 μl water was pipetted out from each system and transferred to 20 ml tubes.

For the compound `CCCCNC(=O)OCC#CI` [free IPBC, 3-iodo-2-propynyl butylcarbamate], in series [1], the “release of free IPBC compared with that from microspheres” value is listed as “about three”.

With `Cc1cccc(C(C)c2cnc[nH]2)c1C` (stereo not shown) [medetomidine, 4-[1-(2,3-dimethylphenyl)ethyl]-3H-imidazole], the “barnacle / tubeworm attachment on painted panels” value in series [2] is “no barnacles or tubeworms attached”. Moreover, the “release of free medetomidine compared with that from microspheres” value in series [3] (solvent-based paint) is “ten”; in series [3] (water-based paint) it was “about two”.
